Laboratory results as given in BindingDB's records for doi:10.1021/jm980334n (University of New Mexico School of Medicine, 1998).

Molecular target: L-lactate dehydrogenase (Plasmodium falciparum) (UniProt Q27743)
Assay: inhibitory activity against Plasmodium falciparum LDH (pLDH)

SMILES	Ki [µM]
CCCc1c(O)c(O)c(C(=O)O)c2ccc(C)cc12 [2,3-Dihydroxy-6-methyl-4-propyl-naphthalene-1-carboxylic acid]	6
Cc1ccc2c(C(=O)O)c(O)c(O)c(C(C)C)c2c1 [2,3-Dihydroxy-4-isopropyl-6-methyl-naphthalene-1-carboxylic acid]	2
Cc1ccc2c(C(=O)O)c(O)c(O)c(C)c2c1 [2,3-Dihydroxy-4,6-dimethyl-naphthalene-1-carboxylic acid]	22
Cc1cc2c(C(=O)O)c(O)c(O)c(C(C)C)c2cc1C [2,3-Dihydroxy-4-isopropyl-6,7-dimethyl-naphthalene-1-carboxylic acid]	1

Next, values leading:

Ki [µM]	SMILES
8	Cc1cc2c(C)c(O)c(O)c(C(=O)O)c2cc1Cc1ccccc1 [7-Benzyl-2,3-dihydroxy-4,6-dimethyl-naphthalene-1-carboxylic acid]
0.2	Cc1cc2c(C(C)C)c(O)c(O)c(C(=O)O)c2cc1Cc1ccc(C(F)(F)F)cc1 [2,3-Dihydroxy-4-isopropyl-6-methyl-7-(4-trifluoromethyl-benzyl)-naphthalene-1-carboxylic acid]
13	Cc1cc2c(C)c(O)c(O)c(C(=O)O)c2cc1C [2,3-Dihydroxy-4,6,7-trimethyl-naphthalene-1-carboxylic acid]
0.7	Cc1cc2c(C(C)C)c(O)c(O)c(C(=O)O)c2cc1Cc1ccccc1 [7-Benzyl-2,3-dihydroxy-4-isopropyl-6-methyl-naphthalene-1-carboxylic acid]
